From ChEMBL document CHEMBL1811879, “Fragmental modeling of hPepT2 and analysis of its binding features by docking studies and pharmacophore mapping” (Bioorg Med Chem, 2011)
Where a SMILES comes first, the peptide text is derived from it. [ ]: non-standard residue; d: D form. Nle = CCCC[C@H](N)C(=O)O

Target: T1, Solute carrier family 15 member 2 (Homo sapiens, UniProt Q16348)
T1 sequence (Q16348 whole entry): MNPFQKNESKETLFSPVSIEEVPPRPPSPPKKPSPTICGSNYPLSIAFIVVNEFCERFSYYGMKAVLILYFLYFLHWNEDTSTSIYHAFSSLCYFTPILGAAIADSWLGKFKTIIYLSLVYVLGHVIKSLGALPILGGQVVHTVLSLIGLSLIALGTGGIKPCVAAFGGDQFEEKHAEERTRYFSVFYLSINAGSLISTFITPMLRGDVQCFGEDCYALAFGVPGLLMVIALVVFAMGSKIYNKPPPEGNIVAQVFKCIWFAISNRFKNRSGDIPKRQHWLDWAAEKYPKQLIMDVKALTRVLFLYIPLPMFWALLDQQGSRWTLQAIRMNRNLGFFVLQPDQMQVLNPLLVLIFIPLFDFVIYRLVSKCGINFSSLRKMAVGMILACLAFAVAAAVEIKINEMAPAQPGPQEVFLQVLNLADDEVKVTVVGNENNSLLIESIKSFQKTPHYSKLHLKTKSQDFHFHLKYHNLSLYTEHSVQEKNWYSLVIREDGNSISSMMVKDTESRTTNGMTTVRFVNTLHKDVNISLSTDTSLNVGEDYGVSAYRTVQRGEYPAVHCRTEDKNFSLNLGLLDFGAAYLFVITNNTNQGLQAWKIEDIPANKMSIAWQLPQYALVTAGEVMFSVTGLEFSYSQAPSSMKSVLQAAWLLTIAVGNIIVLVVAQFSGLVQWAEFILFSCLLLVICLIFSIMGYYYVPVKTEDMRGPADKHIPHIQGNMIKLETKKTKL
Experiment: Binding affinity to human PepT2 in SKTP cells
Format: ADME, cell-based

Row | Molecule | Ki [µM]
1 | O=C(O)CC[C@H](NC(=O)[C@@H]1CCCN1)C(=O)O (H-Pro-Glu-OH) | 2600
2 | CC[C@H](C)[C@H](N)C(=O)N[C@H](C(=O)N[C@@H](Cc1ccc(O)cc1)C(=O)O)C(C)C (H-Ile-Val-Tyr-OH) | 14
3 | CC(=O)OCC1=C(C(=O)O)N2C(=O)[C@@H](NC(=O)CSc3ccncc3)[C@H]2SC1 [CEPHAPIRIN SODIUM] | 11100
4 | CC1=C(C(=O)O)N2C(=O)[C@@H](NC(=O)[C@H](N)c3ccccc3)[C@H]2SC1 [CEPHALEXIN ANHYDROUS] | 75
5 | N[C@@H](Cc1c[nH]c2ccccc12)C(=O)N[C@@H](Cc1c[nH]c2ccccc12)C(=O)N[C@@H](Cc1c[nH]c2ccccc12)C(=O)O (H-Trp-Trp-Trp-OH) | 0.3
6 | C[C@H](N)C(=O)N[C@@H](C)C(=O)N[C@@H](CC(=O)O)C(=O)O (H-Ala-Ala-Asp-OH) | 160
7 | CC(=O)OCC1=C(C(=O)O)N2C(=O)[C@@H](NC(=O)Cc3cccs3)[C@H]2SC1 [CEPHALOTHIN] | 8300
8 | N[C@@H](Cc1c[nH]c2ccccc12)C(=O)NCC(=O)N[C@@H](Cc1ccc(O)cc1)C(=O)O | 1.7
9 | CCCC[C@H](NC(=O)[C@H](C)N)C(=O)O (H-Ala-[Nle]-OH) | 31
10 | CO[C@@]1(NC(=O)CSCC#N)C(=O)N2C(C(=O)O)=C(CSc3nnnn3C)CS[C@@H]21 [CEFMETAZOLE] | 4300
11 | N[C@@H](Cc1ccc(O)cc1)C(=O)N[C@@H](Cc1ccccc1)C(=O)O (H-Tyr-Phe-OH) | 9
12 | C[C@H](NC(=O)CN)C(=O)O (H-Gly-Ala-OH) | 3.5
13 | Cc1onc(-c2c(Cl)cccc2Cl)c1C(=O)N[C@@H]1C(=O)N2[C@@H]1SC(C)(C)[C@@H]2C(=O)O [DICLOXACILLIN] | 420
14 | NCC(=O)N[C@@H](Cc1c[nH]cn1)C(=O)O (H-Gly-His-OH) | 39
15 | CO/N=C(\C(=O)N[C@@H]1C(=O)N2C(C(=O)O)=C(COC(C)=O)CS[C@H]12)c1csc(N)n1 [CEFOTAXIME] | 20000
16 | H-FATAA-OH | 240
17 | COCC1=C(C(=O)O)N2C(=O)[C@@H](NC(=O)/C(=N\OC)c3csc(N)n3)[C@H]2SC1 [CEFPODOXIME] | 31000
18 | NCCCC[C@H](NC(=O)[C@H](Cc1cnc[nH]1)NC(=O)CN)C(=O)O (H-Gly-His-Lys-OH) | 3100
19 | C[C@H](N)C(=O)N[C@@H](CCCCN)C(=O)O (H-Ala-Lys-OH) | 23
20 | CC(C)C[C@H](N)C(=O)NCC(=O)NCC(=O)O (H-Leu-Gly-Gly-OH) | 18

Row | Molecule | Ki [µM]
21 | CC(C)[C@H](N)C(=O)N[C@@H](Cc1ccc(O)cc1)C(=O)O (H-Val-Tyr-OH) | 2.5
22 | C[C@H](N)C(=O)N[C@H](C)C(=O)O (H-Ala-[dA]-OH) | 270
23 | N[C@@H](CC(=O)O)C(=O)N[C@@H](CC(=O)O)C(=O)O (H-Asp-Asp-OH) | 150
24 | Cn1nnnc1SCC1=C(C(=O)O)N2C(=O)[C@@H](NC(=O)[C@H](O)c3ccccc3)[C@H]2SC1 [CEFAMANDOLE] | 2800
25 | C[C@H](N)C(=O)N1CCC[C@H]1C(=O)O (H-Ala-Pro-OH) | 12
26 | CO/N=C(\C(=O)N[C@@H]1C(=O)N2C(C(=O)O)=C(COC(N)=O)CS[C@H]12)c1ccco1 [CEFUROXIME] | 12600
27 | CC(=O)CCC(=O)O [LEVULINIC ACID] | 230
28 | C[C@H](NC(=O)[C@@H](C)N)C(=O)O (H-[dA]-Ala-OH) | 130
29 | CC(C)C[C@H](N)C(=O)N1CCC[C@H]1C(=O)O (H-Leu-Pro-OH) | 10
30 | C=N[C@@H](C(=O)N[C@@H]1C(=O)N2[C@@H]1SC(C)(C)[C@@H]2C(=O)O)c1ccccc1 [METAMPICILLIN] | 730
31 | C[C@H](NC(=O)[C@@H](N)Cc1c[nH]c2ccccc12)C(=O)O (H-Trp-Ala-OH) | 4
32 | C[C@H](N)C(=O)N[C@@H](C)C(=O)N[C@@H](C)C(=O)O | 18
33 | CC1=C(C(=O)O)N2C(=O)[C@@H](NC(=O)[C@H](N)c3ccc(O)cc3)[C@H]2SC1 [CEFADROXIL] | 3
34 | N[C@@H](Cc1c[nH]c2ccccc12)C(=O)N[C@@H](Cc1c[nH]c2ccccc12)C(=O)O (H-Trp-Trp-OH) | 0.8
35 | CC1(C)S[C@@H]2[C@H](NC(=O)C3(N)CCCCC3)C(=O)N2[C@H]1C(=O)O [CYCLACILLIN] | 44
36 | CC[C@H](C)[C@H](N)C(=O)N[C@@H](Cc1ccc(O)cc1)C(=O)O (H-Ile-Tyr-OH) | 8
37 | C[C@H](NC(=O)[C@@H](N)Cc1ccc(O)cc1)C(=O)O | 4.4
38 | N[C@@H](CS)C(=O)NCC(=O)O | 29
39 | C[C@H](NC(=O)[C@@H](N)CCCCN)C(=O)O (H-Lys-Ala-OH) | 41
40 | Cc1onc(-c2ccccc2)c1C(=O)N[C@@H]1C(=O)N2[C@@H]1SC(C)(C)[C@@H]2C(=O)O [OXACILLIN] | 3300

Row | Molecule | Ki [µM]
41 | O=C(O)C[C@H](NC(=O)[C@@H]1CCCN1)C(=O)O (H-Pro-Asp-OH) | 2100
42 | CO/N=C(\C(=O)N[C@@H]1C(=O)N2C(C(=O)O)=C(CSc3nc(C)c(CC(=O)O)s3)CS[C@H]12)c1csc(N)n1 [CEFODIZIME] | 9000
43 | CO/N=C(\C(=O)N[C@@H]1C(=O)N2C(C(=O)[O-])=C(C[N+]3(C)CCCC3)CS[C@H]12)c1csc(N)n1 | 11000
44 | C=CC1=C(C(=O)O)N2C(=O)[C@@H](NC(=O)/C(=N\OCC(=O)O)c3csc(N)n3)[C@H]2SC1 [CEFIXIME] | 2600
45 | O=C(Cc1cccs1)N[C@@H]1C(=O)N2C(C(=O)[O-])=C(C[n+]3ccccc3)CS[C@H]12 [CEPHALORIDINE] | 8500
46 | NCC(=O)NCC(=O)O (H-Gly-Gly-OH) | 54
47 | C[C@H](NC(=O)[C@@H](N)CO)C(=O)O (H-Ser-Ala-OH) | 7
48 | C[C@H](N)C(=O)N[C@@H](CO)C(=O)O (H-Ala-Ser-OH) | 6
49 | H-AATAA-OH | 190
50 | Cc1onc(-c2ccccc2Cl)c1C(=O)N[C@@H]1C(=O)N2[C@@H]1SC(C)(C)[C@@H]2C(=O)O [CLOXACILLIN] | 950
51 | CC(=O)N[C@@H](CCCCN)C(=O)N[C@@H](C)C(=O)O (Ac-Lys-Ala-OH) | 16
52 | C[C@H](N)C(=O)NCC(=O)O (H-Ala-Gly-OH) | 7
53 | N[C@@H](Cc1ccccc1)C(=O)N[C@@H](Cc1ccccc1)C(=O)O (H-Phe-Phe-OH) | 37
54 | N[C@@H](Cc1ccccc1)C(=O)NCC(=O)O (H-Phe-Gly-OH) | 14
55 | CC(C)[C@H](N)C(=O)N1CCC[C@H]1C(=O)O (H-Val-Pro-OH) | 39
56 | CC1(C)S[C@@H]2[C@H](NC(=O)[C@H](N)c3ccc(O)cc3)C(=O)N2[C@H]1C(=O)O [AMOXICILLIN] | 430
57 | CSCC[C@H](NC(=O)[C@@H](N)CCSC)C(=O)O (H-Met-Met-OH) | 3
58 | C[C@H](N)C(=O)N[C@H](C(=O)N[C@@H](C)C(=O)N[C@@H](C)C(=O)O)[C@@H](C)O (H-ATAA-OH) | 550
59 | NCCCC[C@H](NC(=O)[C@H](Cc1ccccc1)NC(=O)[C@@H]1CCCN1)C(=O)O (H-Pro-Phe-Lys-OH) | 900
